Assay results as given in patent publication US20140190726A1, “MIXTURE OF DECAFLUORO-2-METHYLBUTAN-3-ONE AND A CARRIER GAS AS A MEDIUM FOR ELECTRICAL INSULATION AND/OR FOR ELECTRIC ARC EXTINCTION IN MEDIUM-VOLTAGE” (SCHNEIDER ELECTRIC INDUSTRIES SAS, priority 2011, published 2014).

Tests used:
[1] = Saturation vapour pressure of C5K at minimum service temperatures; format: physicochemical; conditions: for PC5K pressure equivalent at 20° C. to the saturation vapour pressure: formula (II)
Method: Table I below indicates the saturation vapour pressures, noted PVSC5K, which C5K has at the temperatures of 0, −5, −10, −15, −20, −25, −30, −35 and −40° C., which are the minimum service temperatures typically found for medium- and high-voltage electrical devices.
It also indicates the pressure values, noted PC5K, which correspond at 20° C. to these saturation vapour pressures, and which are obtained by applying formula (II) above.

[2] = humans and animals; cited from earlier work

Row | Structure (SMILES) | PVSC5K saturation vapour pressure ([1]; 0° C.) | PC5K pressure equivalent at 20° C. to the saturation vapour pressure ([1]; 0° C.) | PVSC5K saturation vapour pressure ([1]; −5° C.) | PC5K pressure equivalent at 20° C. to the saturation vapour pressure ([1]; −5° C.) | PVSC5K saturation vapour pressure ([1]; −10° C.) | PC5K pressure equivalent at 20° C. to the saturation vapour pressure ([1]; −10° C.) | PVSC5K saturation vapour pressure ([1]; −15° C.) | PC5K pressure equivalent at 20° C. to the saturation vapour pressure ([1]; −15° C.) | PVSC5K saturation vapour pressure ([1]; −20° C.) | PC5K pressure equivalent at 20° C. to the saturation vapour pressure ([1]; −20° C.) | PVSC5K saturation vapour pressure ([1]; −25° C.) | PC5K pressure equivalent at 20° C. to the saturation vapour pressure ([1]; −25° C.) | PVSC5K saturation vapour pressure ([1]; −30° C.) | PC5K pressure equivalent at 20° C. to the saturation vapour pressure ([1]; −30° C.) | PVSC5K saturation vapour pressure ([1]; −35° C.) | PC5K pressure equivalent at 20° C. to the saturation vapour pressure ([1]; −35° C.) | PVSC5K saturation vapour pressure ([1]; −40° C.) | PC5K pressure equivalent at 20° C. to the saturation vapour pressure ([1]; −40° C.) | Toxicity [2]
1 | O=C(C(F)(F)F)C(F)(C(F)(F)F)C(F)(F)F [C5K, decafluoro-2-methylbutan-3-one] | 41.3 kPa | 44.3 kPa | 33.6 kPa | 36.7 kPa | 27.1 kPa | 30.2 kPa | 21.7 kPa | 24.7 kPa | 17.3 kPa | 20.0 kPa | 13.6 kPa | 16.0 kPa | 10.6 kPa | 12.7 kPa | 8.1 kPa | 10.0 kPa | 6.2 kPa | 7.8 kPa | –
2 | FS(F)(F)(F)(F)F [SF6, sulphur hexafluoride] | – | – | – | – | – | – | – | – | – | – | – | – | – | – | – | – | – | – | non-toxic for humans and animals
